Reference: article PMC6095608 (PLoS ONE, 2018)

Assays:
[1] = set-up: method as in PMID 16141277; settings: humans, plasma proteins; cited from earlier work
[2] = target: MRP2 (Homo sapiens, UniProt Q92887); assay: Calcein efflux assay in MDCK-MRP2 cells
Method: ABC transporter-expressing MDCK cells were seeded in 96-well plates at a density of 25 x 10^3 cells per well and cultivated in DMEM medium supplemented with 10% FBS. Forty-eight hours after seeding, the cells were used in accumulation experiments with Hoechst 33342 (a common fluorescent substrate of MDR1 and BCRP) or efflux assays with Calcein (a fluorescent substrate of MRP2). Briefly, at the end of the 48 hours, the medium was aspirated and the cells were washed with pre-warmed PBS and then preincubated with efavirenz in Opti-MEM for 30 minutes. In the Hoechst 33342 assays, a solution of Hoechst 33342 (50 μg/ml) in Opti-MEM was added and allowed to accumulate for 30 minutes. The experiment was stopped by aspirating the medium and washing the cells twice with ice cold PBS. Intracellular fluorescence was then measured using excitation and emission wavelengths of 350 nm and 465 nm, respectively. In the calcein efflux assays, a solution of calcein AM in Opti-MEM with or without efavirenz was added after the pre-incubation phase and allowed to accumulate for 15 minutes. […] Calcein fluorescence was measured using excitation and emission wavelengths of 496 nm and 516 nm, respectively.
Statistical analyses were performed using GraphPad Prism, version 7.03 (GraphPad Software, San Diego, CA). P values were calculated using multiple two-tailed t-tests or one-way ANOVA followed by Dunnett’s or Bonferroni’s multiple comparison test, as appropriate. […] The half-maximal inhibitory concentration (IC50) was calculated by non-linear regression analysis using sigmoidal Hill kinetics.
Model inhibitors of MDR1, BCRP and MRP2, namely LY335979 (LY, 1 μM), Ko143 (2.5 μM), and MK571 (10 μM), respectively, were used as positive controls at the minimal concentrations causing maximal inhibition in the corresponding cellular system and assay. […] Data were analyzed by one-way ANOVA followed by Bonferroni’s multiple comparison test (* P ≤ 0.05, ** P ≤ 0.01, *** P ≤ 0.001) and are presented as means ± SD of at least three experiments (n = 3–5) performed in triplicate.

[3] = cited from earlier work
[4] = test system: human OCT1; set-up: method as in PMID 18490433; settings: 5 μM efavirenz, 1 min incubation; cited from earlier work
[5] = target: T1, OCT1 (Homo sapiens, UniProt O15245); assay: Inhibition of net [14C]-metformin uptake in MDCK-OCT1 cells; assay type: cell-based; settings: 50 μM metformin, 5 min, pH 7.4, efavirenz 0.01–50 μM, read-out: IC50, inhibition of net OCT1-mediated [14C]-metformin uptake
T1 construct: expressed in transfected cells; host or cells: MDCKII (MDCK-OCT1)
T1 sequence (O15245 1-554): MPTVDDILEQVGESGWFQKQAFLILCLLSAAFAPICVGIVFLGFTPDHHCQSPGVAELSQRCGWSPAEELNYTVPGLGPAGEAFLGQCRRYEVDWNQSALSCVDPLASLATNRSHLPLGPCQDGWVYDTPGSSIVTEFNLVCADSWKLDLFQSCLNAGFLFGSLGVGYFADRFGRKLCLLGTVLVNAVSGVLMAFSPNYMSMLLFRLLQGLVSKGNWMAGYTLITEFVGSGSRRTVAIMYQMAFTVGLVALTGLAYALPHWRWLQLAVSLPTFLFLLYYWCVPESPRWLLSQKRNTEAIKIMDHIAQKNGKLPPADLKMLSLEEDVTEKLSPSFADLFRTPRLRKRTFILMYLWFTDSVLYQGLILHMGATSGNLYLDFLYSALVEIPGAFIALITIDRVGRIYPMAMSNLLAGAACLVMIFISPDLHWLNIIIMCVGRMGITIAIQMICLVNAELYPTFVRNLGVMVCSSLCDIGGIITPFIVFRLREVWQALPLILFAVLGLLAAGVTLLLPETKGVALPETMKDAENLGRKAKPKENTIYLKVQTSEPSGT
Method: The singly-transfected OCT1, OCT2, MATE1 or control MDCK cells were seeded on 12-well plates at a density of 0.5 x 10^6 cells per well and cultivated in standard cultivation medium MEM (Gibco) + 10% FBS. Forty-eight hours after seeding, uptake experiments with radiolabelled metformin were performed. Cells were washed with 500 μl pre-warmed HBSS buffer of pH 7.4 (for OCTs) or 8.0 (for MATE1). Solutions of [^14C]-metformin (50 μM) in HBSS buffer of pH 7.4 or 8.0 with or without efavirenz were then added, and the resulting mixtures were left to stand for an accumulation period of 5 minutes. […] After the accumulation period, the solutions were aspirated and the cells were washed three times with 500 μl ice-cold HBSS buffer of pH 7.4 or 8.0 before being lysed with 0.02% sodium dodecyl sulphate (SDS). The intracellular accumulation of radioactivity was detected using a liquid scintillation counter (Tri-Carb 2910 TR Perkin Elmer), and protein concentrations in the cell lysates were measured by the BCA protein assay. Net transporter-mediated uptake was obtained by subtracting the accumulation of metformin in vector control cells from that in drug transporter-overexpressing cells.
A p value of ≤ 0.05 was considered statistically significant. […]

[6] = target: T1, OCT1; assay: Transcellular transport assay across MDCK-OCT1 monolayers; assay type: cell-based; settings: 10 μM efavirenz, 2 h
Method: (§1) Transport experiments employing polarized monolayers of MDCK-OCT1, MDCK-OCT2, or MDCK-MATE1 cell lines as well as doubly transfected MDCK-OCT1-MATE1 or MDCK-OCT2-MATE1 lines and the non-transfected parental control MDCK-Co cells grown on Transwell 3402 cell culture inserts (3.0 μm pore size, 24 mm diameter; Costar, Corning, NY) were performed as described previously. The number of cells per well was 0.5 x 10^6 in all experiments, and the cells were incubated for 3 days to confluence in standard cultivation medium MEM (Gibco) + 10% FBS. After 3 days’ cultivation, medium was removed from both sides and the cells of the monolayer were washed using pre-warmed PBS. […] The pH of the medium on the basolateral side was 7.4, while that on the apical side was set to 6.0 (adjusted by adding HCl or NaOH, when necessary) to ensure optimal MATE1 transport activity. Cells were incubated at 37°C in 5% CO2 for 2 hours. At the end of the incubation period, 50 μl aliquots were sampled and the rest of the medium was immediately removed. The cells were then washed twice with ice-cold PBS, the membranes supporting cellular monolayers were excised, and the cells were dissolved in a 0.02% SDS solution. The radioactivity of the collected samples and lysed monolayers was measured by liquid scintillation counting (Tri-Carb 2910 TR Perkin Elmer), and the protein concentration of the cell lysates was quantified using the BCA protein assay. Transport rates were recorded in pmol per mg protein in the cellular monolayer.

[7] = test system: BCRP; set-up: method as in PMID 17202245; settings: only at 50 μM; cited from earlier work
[8] = test system: OCT1 and MATE1; assay: Transcellular transport assay across doubly transfected MDCK-OCT1-MATE1 monolayers; assay type: cell-based, human; settings: 10 μM efavirenz, 2 h
Method: as §1

[9] = test system: MRP transporters; set-up: method as in PMID 17172311; settings: only at 50 μM; cited from earlier work

Sequence of MRP2 (Q92887 whole entry): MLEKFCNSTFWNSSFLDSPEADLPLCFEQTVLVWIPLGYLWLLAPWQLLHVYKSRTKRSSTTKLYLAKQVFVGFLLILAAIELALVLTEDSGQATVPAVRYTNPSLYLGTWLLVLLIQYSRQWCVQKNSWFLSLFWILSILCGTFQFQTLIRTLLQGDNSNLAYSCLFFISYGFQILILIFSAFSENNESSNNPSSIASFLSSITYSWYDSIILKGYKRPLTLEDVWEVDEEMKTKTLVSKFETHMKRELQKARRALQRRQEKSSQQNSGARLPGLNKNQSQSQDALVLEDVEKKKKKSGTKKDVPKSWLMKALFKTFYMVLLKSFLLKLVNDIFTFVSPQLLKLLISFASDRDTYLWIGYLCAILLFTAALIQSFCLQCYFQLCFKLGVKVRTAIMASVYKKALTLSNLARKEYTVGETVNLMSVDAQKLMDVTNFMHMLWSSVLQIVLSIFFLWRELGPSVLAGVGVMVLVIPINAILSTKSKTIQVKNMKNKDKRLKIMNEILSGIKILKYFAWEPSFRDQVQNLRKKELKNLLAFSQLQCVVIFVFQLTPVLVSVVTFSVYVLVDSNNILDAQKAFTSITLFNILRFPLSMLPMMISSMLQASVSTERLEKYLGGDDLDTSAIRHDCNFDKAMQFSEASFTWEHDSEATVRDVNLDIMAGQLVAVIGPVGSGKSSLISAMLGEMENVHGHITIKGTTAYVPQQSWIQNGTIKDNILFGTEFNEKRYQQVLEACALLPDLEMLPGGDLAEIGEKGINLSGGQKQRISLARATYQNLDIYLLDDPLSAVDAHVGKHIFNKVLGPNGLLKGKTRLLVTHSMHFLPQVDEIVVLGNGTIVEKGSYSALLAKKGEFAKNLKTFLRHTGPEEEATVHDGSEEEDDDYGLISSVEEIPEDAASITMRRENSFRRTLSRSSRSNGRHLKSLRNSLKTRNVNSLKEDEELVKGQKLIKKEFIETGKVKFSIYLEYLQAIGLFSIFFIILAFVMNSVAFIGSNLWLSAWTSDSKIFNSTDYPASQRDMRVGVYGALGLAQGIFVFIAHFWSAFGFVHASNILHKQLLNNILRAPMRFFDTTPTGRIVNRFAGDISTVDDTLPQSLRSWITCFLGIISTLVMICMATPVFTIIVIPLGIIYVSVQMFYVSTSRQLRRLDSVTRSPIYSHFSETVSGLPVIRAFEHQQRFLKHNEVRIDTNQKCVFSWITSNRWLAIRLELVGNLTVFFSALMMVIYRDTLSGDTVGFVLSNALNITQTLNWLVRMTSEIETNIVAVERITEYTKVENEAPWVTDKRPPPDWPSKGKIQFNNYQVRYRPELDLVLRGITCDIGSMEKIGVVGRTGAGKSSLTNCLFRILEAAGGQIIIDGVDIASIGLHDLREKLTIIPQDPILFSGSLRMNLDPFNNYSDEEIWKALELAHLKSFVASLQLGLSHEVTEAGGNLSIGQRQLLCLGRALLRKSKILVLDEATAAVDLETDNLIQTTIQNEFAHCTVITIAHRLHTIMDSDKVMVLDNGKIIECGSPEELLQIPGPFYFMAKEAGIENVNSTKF

## O=C1Nc2ccc(Cl)cc2[C@@](C#CC2CC2)(C(F)(F)F)O1 [efavirenz, Efavirenz]
[1]
  Median unbound percentage: 0.63%
[2]; MRP2 absolute IC50, calcein efflux, control inhibitor MK571 10 μM = 100%
  IC50: 4.9 µM
[2]; MRP2 relative IC50, calcein efflux, maximal inhibition by efavirenz alone = 100%
  IC50: 1.6 µM
[2]; calcein AM 0.25 μM efflux assay
  Concentrations inhibiting the MRP2 drug transporter: ≥ 1 µM
[3]; humans
  Efavirenz concentration in the plasma seen in humans (median): 6.9 µM
  Efavirenz concentration in the plasma seen in humans (range): 0.4 to 48 µM
[3]; therapeutically, responding HIV-positive patients
  Average plasma concentration (cp) of efavirenz: ~ 8.7 μM
[4]
  Inhibitory effect on OCT1 with MPP+ as substrate: did not detect any inhibitory effect
[5]
  IC50: 2300 nM
[6]; 2 nM MPP+, MDCK-OCT1
  Effect on basolateral-to-apical transport of [3H]-MPP+: Inhibition
[6]; 2 nM MPP+, MDCK-OCT1 monolayers
  Effect on intracellular accumulation of [3H]-MPP+: significantly reduced
[6]; 10 nM lamivudine, MDCK-OCT1
  Effect on intracellular accumulation of [3H]-lamivudine: significantly reduced
[6]; 10 nM lamivudine, basal to apical, MDCK-OCT1
  Effect on transcellular transport of [3H]-lamivudine: significantly inhibited
[7]
  Inhibition of BCRP: inhibit
[8]; 2 nM MPP+, MDCK-OCT1-MATE1
  Effect on basolateral-to-apical transport of [3H]-MPP+: Inhibition
[8]; 2 nM MPP+, MDCK-OCT1-MATE1 monolayers
  Effect on intracellular accumulation of [3H]-MPP+: unaffected
[8]; 10 nM lamivudine, OCT1-MATE1 cells
  Effect on intracellular accumulation of [3H]-lamivudine: remained unaffected
[8]; 10 nM lamivudine, basal to apical, MDCK-OCT1-MATE1
  Effect on transcellular transport of [3H]-lamivudine: significantly inhibited
[9]
  Inhibition of MRP transporters: inhibit
